Laboratory results published in paper doi:10.1101/706168v1 (biorxiv, 2019).

Experiments:
[1] = molecular target: T1, TRPC6 (Homo sapiens, UniProt Q9Y210); assay: cell-based
T1 sequence (Q9Y210 1-931): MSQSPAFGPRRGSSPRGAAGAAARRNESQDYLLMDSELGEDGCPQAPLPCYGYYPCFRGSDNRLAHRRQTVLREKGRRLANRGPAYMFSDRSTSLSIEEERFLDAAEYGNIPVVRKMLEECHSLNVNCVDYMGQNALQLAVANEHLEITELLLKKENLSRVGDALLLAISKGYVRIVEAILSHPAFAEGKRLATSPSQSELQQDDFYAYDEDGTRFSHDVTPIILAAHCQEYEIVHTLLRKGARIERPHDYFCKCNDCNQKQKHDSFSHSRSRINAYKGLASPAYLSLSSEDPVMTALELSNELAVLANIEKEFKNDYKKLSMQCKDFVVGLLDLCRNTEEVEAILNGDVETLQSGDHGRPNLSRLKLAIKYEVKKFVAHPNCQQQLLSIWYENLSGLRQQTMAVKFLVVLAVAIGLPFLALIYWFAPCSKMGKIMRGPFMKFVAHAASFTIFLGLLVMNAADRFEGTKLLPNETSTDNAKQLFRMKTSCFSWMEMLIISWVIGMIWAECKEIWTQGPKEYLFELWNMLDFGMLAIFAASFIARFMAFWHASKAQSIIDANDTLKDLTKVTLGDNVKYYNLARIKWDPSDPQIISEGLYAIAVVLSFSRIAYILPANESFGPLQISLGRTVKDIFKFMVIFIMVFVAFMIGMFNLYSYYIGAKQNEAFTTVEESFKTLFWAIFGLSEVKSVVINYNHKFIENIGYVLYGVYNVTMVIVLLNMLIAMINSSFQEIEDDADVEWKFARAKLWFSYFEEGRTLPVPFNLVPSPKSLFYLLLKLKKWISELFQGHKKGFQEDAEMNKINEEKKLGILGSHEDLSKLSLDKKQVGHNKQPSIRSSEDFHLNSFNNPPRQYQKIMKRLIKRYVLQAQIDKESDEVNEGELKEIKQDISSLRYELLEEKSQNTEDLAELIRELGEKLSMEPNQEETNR

[2] = molecular target: T2, HCN4 (Homo sapiens, UniProt Q9Y3Q4); assay: cell-based
T2 sequence (Q9Y3Q4 1-1203): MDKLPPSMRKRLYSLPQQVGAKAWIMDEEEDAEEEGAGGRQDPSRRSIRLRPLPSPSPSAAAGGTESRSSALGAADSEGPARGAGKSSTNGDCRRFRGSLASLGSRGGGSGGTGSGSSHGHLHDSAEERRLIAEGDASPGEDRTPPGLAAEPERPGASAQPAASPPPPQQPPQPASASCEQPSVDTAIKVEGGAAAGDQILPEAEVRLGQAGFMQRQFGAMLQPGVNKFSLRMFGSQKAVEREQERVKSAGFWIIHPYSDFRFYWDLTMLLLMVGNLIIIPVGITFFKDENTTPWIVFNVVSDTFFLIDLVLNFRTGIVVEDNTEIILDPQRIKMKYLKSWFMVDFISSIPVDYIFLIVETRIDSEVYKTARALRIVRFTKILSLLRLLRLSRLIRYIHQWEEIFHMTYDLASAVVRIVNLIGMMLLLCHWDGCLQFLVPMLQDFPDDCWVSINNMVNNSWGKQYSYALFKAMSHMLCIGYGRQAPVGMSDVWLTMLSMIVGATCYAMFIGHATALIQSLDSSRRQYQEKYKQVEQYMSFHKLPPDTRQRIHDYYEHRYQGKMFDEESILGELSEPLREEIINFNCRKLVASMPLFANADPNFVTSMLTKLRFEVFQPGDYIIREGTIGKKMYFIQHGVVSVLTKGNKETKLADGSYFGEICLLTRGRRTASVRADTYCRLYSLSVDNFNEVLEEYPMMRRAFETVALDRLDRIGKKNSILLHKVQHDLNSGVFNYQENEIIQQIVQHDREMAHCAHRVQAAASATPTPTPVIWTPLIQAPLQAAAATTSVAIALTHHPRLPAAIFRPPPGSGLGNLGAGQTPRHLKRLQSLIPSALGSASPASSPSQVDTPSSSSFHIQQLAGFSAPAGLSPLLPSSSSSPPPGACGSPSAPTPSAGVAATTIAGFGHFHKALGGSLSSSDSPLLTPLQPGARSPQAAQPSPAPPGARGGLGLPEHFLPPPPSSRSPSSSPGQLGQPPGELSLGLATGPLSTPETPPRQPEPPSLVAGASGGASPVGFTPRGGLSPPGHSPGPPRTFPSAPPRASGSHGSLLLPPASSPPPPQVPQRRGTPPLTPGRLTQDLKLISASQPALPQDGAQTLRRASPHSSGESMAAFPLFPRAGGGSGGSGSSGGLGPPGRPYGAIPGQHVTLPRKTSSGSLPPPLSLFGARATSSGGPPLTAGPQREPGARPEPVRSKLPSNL

For `O=C(c1ccccc1F)N1CCN(Cc2c(-c3ccc(Br)cc3)nc3ccccn23)CC1` [BAY 1000493, (4-{[2-(4-bromophenyl)imidazo[1,2-a]pyridin-3-yl]methyl}vpiperazin-1-yl)(2-fluorophenyl)methanone], the IC50 [1] was > 30 µM and the IC50 [2] was > 30 µM.
